Laboratory results as given in patent US9738634B2, “Heterocyclic amide compound and herbicide” (SYNGENTA PARTICIPATIONS AG, priority 2013, dated 2017).

Legend:
Assay type in all cases: in vivo
[1] = tested on: wild oat; assay: Test Example 3: weedkilling efficacy through soil treatment; G: wild oat; details: treatment dosage 315 g/ha
Procedure, shortened: (§1)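 Crop and weed responses were judged three weeks after a uniform surface spray of the water-diluted emulsion at the given g/ha rate. Seeds sat beneath about 1.5 cm of sterilized diluvial soil, and boxes stood in a greenhouse at 25 to 30° C.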

[2] = tested on: fig-leafed goosefoot; assay: Test Example 3: weedkilling efficacy through soil treatment; M: fig-leafed goosefoot; details: treatment dosage 315 g/ha
Procedure, shortened: as §1

[3] = tested on: green foxtail; assay: Test Example 4: weedkilling efficacy by foliar treatment; E: green foxtail; details: treatment dosage 315 g/ha
Procedure, shortened: (§2)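 Seeds are spot-sown into sterilized diluvial soil and covered with about 1.5 cm of soil. After 14 days' greenhouse growth at 25 to 30° C, plants are sprayed on stems and leaves with diluted emulsion at the stated g/ha rate, then scored at 3 weeks.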

[4] = tested on: Italian ryegrass; assay: Test Example 3: weedkilling efficacy through soil treatment; I: Italian ryegrass; details: treatment dosage 315 g/ha
Procedure, shortened: as §1

[5] = tested on: redroot pigweed; assay: Test Example 4: weedkilling efficacy by foliar treatment; L: redroot pigweed; details: treatment dosage 315 g/ha
Procedure, shortened: as §2

[6] = tested on: barnyard grass; assay: Test Example 2: weedkilling efficacy, growth period weed treatment in the submerged state; A: barnyard grass; details: treatment dosage 252 g/ha
Procedure, shortened: (§3)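 Seedlings at 1-2 leaves in 4 cm-deep submerged alluvial soil received emulsion formulations on the water surface, dosed per hectare; effects were judged 3 weeks on.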

[7] = tested on: wild oat; assay: Test Example 4: weedkilling efficacy by foliar treatment; G: wild oat; details: treatment dosage 315 g/ha
Procedure, shortened: as §2

[8] = tested on: bulrush; assay: Test Example 2: weedkilling efficacy, growth period weed treatment in the submerged state; B: bulrush; details: treatment dosage 252 g/ha
Procedure, shortened: as §3

[9] = tested on: beet; assay: Test Example 3: soil treatment, effect on crop; f: beet; details: treatment dosage 315 g/ha
Procedure, shortened: as §1

[10] = tested on: bulrush; assay: Test Example 1: weedkilling efficacy, preemergent weed treatment in the submerged state; B: bulrush; details: treatment dosage 252 g/ha
Procedure, shortened: (§4)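 Pre-emergence paddy test: weed seeds sown in submerged alluvial soil (4 cm water), 2.5-leaf rice transplanted, water-diluted emulsion applied to water surface at sowing at stated g/ha. Scored at 3 weeks, greenhouse 25–30 °C.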

[11] = tested on: black-grass; assay: Test Example 3: weedkilling efficacy through soil treatment; H: black-grass; details: treatment dosage 315 g/ha
Procedure, shortened: as §1

[12] = tested on: birds-eye speedwell; assay: Test Example 3: weedkilling efficacy through soil treatment; p: birds-eye speedwell; details: treatment dosage 315 g/ha
Procedure, shortened: as §1

[13] = tested on: chickweed; assay: Test Example 3: weedkilling efficacy through soil treatment; N: chickweed; details: treatment dosage 315 g/ha
Procedure, shortened: as §1

[14] = tested on: green foxtail; assay: Test Example 3: weedkilling efficacy through soil treatment; E: green foxtail; details: treatment dosage 315 g/ha
Procedure, shortened: as §1

[15] = tested on: corn; assay: Test Example 4: foliar treatment, effect on crop; c: corn; details: treatment dosage 315 g/ha
Procedure, shortened: as §2

[16] = tested on: barnyard grass; assay: Test Example 1: weedkilling efficacy, preemergent weed treatment in the submerged state; A: barnyard grass; details: treatment dosage 252 g/ha
Procedure, shortened: as §4

[17] = tested on: wheat; assay: Test Example 3: soil treatment, effect on crop; e: wheat; details: treatment dosage 315 g/ha
Procedure, shortened: as §1

[18] = tested on: catchweed; assay: Test Example 4: weedkilling efficacy by foliar treatment; O: catchweed; details: treatment dosage 315 g/ha
Procedure, shortened: as §2

[19] = tested on: oval-leafed pondweed; assay: Test Example 1: weedkilling efficacy, preemergent weed treatment in the submerged state; C: oval-leafed pondweed; details: treatment dosage 252 g/ha
Procedure, shortened: as §4

[20] = tested on: directly sown rice; assay: Test Example 4: foliar treatment, effect on crop; b: directly sown rice; details: treatment dosage 315 g/ha
Procedure, shortened: as §2

[21] = tested on: chickweed; assay: Test Example 4: weedkilling efficacy by foliar treatment; N: chickweed; details: treatment dosage 315 g/ha
Procedure, shortened: as §2

[22] = tested on: catchweed; assay: Test Example 3: weedkilling efficacy through soil treatment; O: catchweed; details: treatment dosage 315 g/ha
Procedure, shortened: as §1

[23] = tested on: corn; assay: Test Example 3: soil treatment, effect on crop; c: corn; details: treatment dosage 315 g/ha
Procedure, shortened: as §1

[24] = tested on: oval-leafed pondweed; assay: Test Example 2: weedkilling efficacy, growth period weed treatment in the submerged state; C: oval-leafed pondweed; details: treatment dosage 252 g/ha
Procedure, shortened: as §3

[25] = tested on: fig-leafed goosefoot; assay: Test Example 4: weedkilling efficacy by foliar treatment; M: fig-leafed goosefoot; details: treatment dosage 315 g/ha
Procedure, shortened: as §2

[26] = tested on: crabgrass; assay: Test Example 4: weedkilling efficacy by foliar treatment; D: crabgrass; details: treatment dosage 315 g/ha
Procedure, shortened: as §2

[27] = tested on: redroot pigweed; assay: Test Example 3: weedkilling efficacy through soil treatment; L: redroot pigweed; details: treatment dosage 315 g/ha
Procedure, shortened: as §1

[28] = tested on: birds-eye speedwell; assay: Test Example 4: weedkilling efficacy by foliar treatment; p: birds-eye speedwell; details: treatment dosage 315 g/ha
Procedure, shortened: as §2

[29] = tested on: soybean; assay: Test Example 3: soil treatment, effect on crop; d: soybean; details: treatment dosage 315 g/ha
Procedure, shortened: as §1

[30] = tested on: directly sown rice; assay: Test Example 3: soil treatment, effect on crop; b: directly sown rice; details: treatment dosage 315 g/ha
Procedure, shortened: as §1

[31] = tested on: beet; assay: Test Example 4: foliar treatment, effect on crop; f: beet; details: treatment dosage 315 g/ha
Procedure, shortened: as §2

[32] = tested on: Italian ryegrass; assay: Test Example 4: weedkilling efficacy by foliar treatment; I: Italian ryegrass; details: treatment dosage 315 g/ha
Procedure, shortened: as §2

[33] = tested on: black-grass; assay: Test Example 4: weedkilling efficacy by foliar treatment; H: black-grass; details: treatment dosage 315 g/ha
Procedure, shortened: as §2

[34] = tested on: Indian mallow; assay: Test Example 4: weedkilling efficacy by foliar treatment; K: Indian mallow; details: treatment dosage 315 g/ha
Procedure, shortened: as §2

[35] = tested on: transplanted rice; assay: Test Example 1: preemergent weed treatment in the submerged state, effect on crop; a: transplanted rice; details: treatment dosage 252 g/ha
Procedure, shortened: as §4

[36] = tested on: wheat; assay: Test Example 4: foliar treatment, effect on crop; e: wheat; details: treatment dosage 315 g/ha
Procedure, shortened: as §2

[37] = tested on: soybean; assay: Test Example 4: foliar treatment, effect on crop; d: soybean; details: treatment dosage 315 g/ha
Procedure, shortened: as §2

[38] = tested on: crabgrass; assay: Test Example 3: weedkilling efficacy through soil treatment; D: crabgrass; details: treatment dosage 315 g/ha
Procedure, shortened: as §1

[39] = tested on: Indian mallow; assay: Test Example 3: weedkilling efficacy through soil treatment; K: Indian mallow; details: treatment dosage 315 g/ha
Procedure, shortened: as §1

## CC1=C(c2cccnc2F)C(=O)N(C(C)(C)C(=O)Nc2cc(Br)ccn2)CO1 [B-2-09]
[1]
  G (wild oat) weedkilling efficacy grade: 3 (weed kill ratio 40% or more, less than 70%)
[2]
  M (fig-leafed goosefoot) weedkilling efficacy grade: 3 (weed kill ratio 40% or more, less than 70%)
[3]
  E (green foxtail) weedkilling efficacy grade: 5 (weed kill ratio 90% or more, (practically complete withering))
[4]
  I (Italian ryegrass) weedkilling efficacy grade: 5 (weed kill ratio 90% or more, (practically complete withering))
[5]
  L (redroot pigweed) weedkilling efficacy grade: 0 (weed kill ratio 5% or less (practically no effect))
[6]
  A (barnyard grass) weedkilling efficacy grade: 4 (weed kill ratio 70% or more, less than 90%)
[7]
  G (wild oat) weedkilling efficacy grade: 0 (weed kill ratio 5% or less (practically no effect))
[8]
  B (bulrush) weedkilling efficacy grade: 5 (weed kill ratio 90% or more, (practically complete withering))
[9]
  f (beet) effect on crop grade: 1 (weed kill ratio 5% or more, less than 20%)
[10]
  B (bulrush) weedkilling efficacy grade: 5 (weed kill ratio 90% or more, (practically complete withering))
[11]
  H (black-grass) weedkilling efficacy grade: 4 (weed kill ratio 70% or more, less than 90%)
[12]
  P (birds-eye speedwell) weedkilling efficacy grade: 4 (weed kill ratio 70% or more, less than 90%)
[13]
  N (chickweed) weedkilling efficacy grade: 2 (weed kill ratio 20% or more, less than 40%)
[14]
  E (green foxtail) weedkilling efficacy grade: 5 (weed kill ratio 90% or more, (practically complete withering))
[15]
  c (corn) effect on crop grade: 0 (weed kill ratio 5% or less (practically no effect))
[16]
  A (barnyard grass) weedkilling efficacy grade: 5 (weed kill ratio 90% or more, (practically complete withering))
[17]
  e (wheat) effect on crop grade: 0 (weed kill ratio 5% or less (practically no effect))
[18]
  O (catchweed) weedkilling efficacy grade: 1 (weed kill ratio 5% or more, less than 20%)
[19]
  C (oval-leafed pondweed) weedkilling efficacy grade: 5 (weed kill ratio 90% or more, (practically complete withering))
[20]
  b (directly sown rice) effect on crop grade: 5 (weed kill ratio 90% or more, (practically complete withering))
[21]
  N (chickweed) weedkilling efficacy grade: 3 (weed kill ratio 40% or more, less than 70%)
[22]
  O (catchweed) weedkilling efficacy grade: 3 (weed kill ratio 40% or more, less than 70%)
[23]
  c (corn) effect on crop grade: 0 (weed kill ratio 5% or less (practically no effect))
[24]
  C (oval-leafed pondweed) weedkilling efficacy grade: 3 (weed kill ratio 40% or more, less than 70%)
[25]
  M (fig-leafed goosefoot) weedkilling efficacy grade: 4 (weed kill ratio 70% or more, less than 90%)
[26]
  D (crabgrass) weedkilling efficacy grade: 5 (weed kill ratio 90% or more, (practically complete withering))
[27]
  L (redroot pigweed) weedkilling efficacy grade: 0 (weed kill ratio 5% or less (practically no effect))
[28]
  P (birds-eye speedwell) weedkilling efficacy grade: 4 (weed kill ratio 70% or more, less than 90%)
[29]
  d (soybean) effect on crop grade: 0 (weed kill ratio 5% or less (practically no effect))
[30]
  b (directly sown rice) effect on crop grade: 3 (weed kill ratio 40% or more, less than 70%)
[31]
  f (beet) effect on crop grade: 1 (weed kill ratio 5% or more, less than 20%)
[32]
  I (Italian ryegrass) weedkilling efficacy grade: 4 (weed kill ratio 70% or more, less than 90%)
[33]
  H (black-grass) weedkilling efficacy grade: 4 (weed kill ratio 70% or more, less than 90%)
[34]
  K (Indian mallow) weedkilling efficacy grade: 0 (weed kill ratio 5% or less (practically no effect))
[35]
  a (transplanted rice) effect on crop grade: 1 (weed kill ratio 5% or more, less than 20%)
[36]
  e (wheat) effect on crop grade: 0 (weed kill ratio 5% or less (practically no effect))
[37]
  d (soybean) effect on crop grade: 0 (weed kill ratio 5% or less (practically no effect))
[38]
  D (crabgrass) weedkilling efficacy grade: 5 (weed kill ratio 90% or more, (practically complete withering))
[39]
  K (Indian mallow) weedkilling efficacy grade: 0 (weed kill ratio 5% or less (practically no effect))
